Laboratory results taken from US20090286738A1, “Gene Regulation” (ST. GEORGE'S ENTERPRISES LIMITED, priority 2005, published 2009).
Entries after “also recorded” stand apart in the source; their conditions may differ.

What was measured:
[1] = Stability of peptides in human plasma at 37° C., SDS-PAGE; format: in vitro ADME; settings: 1 mM peptide
Experimental: Peptides were incubated in human serum for the times shown and then visualised on a Coomassie brilliant blue stained gel. The arrow heads indicate the position of intact peptide. Standard=peptide only in this lane as a marker.
The stability of HXArg9(2D) and CX2Arg9(2D) was assessed by incubation each with human plasma at 37° C. and the amount of peptide remaining after different amounts of time was assessed by SDS-PAGE. Each peptide was added to freshly prepared human plasma to a final concentration of 1 mM in a total volume of 40 μl. Samples were incubated at 37° C. and reactions were stopped by adding 60 μl of water and 0.9 ml of protein gel loading buffer (BioRad, USA) containing 1% 2-mercaptoethanol, and heating to 95° C. for four minutes. 2 μl of each sample was run on a 22% acrylamide gel. […] This compared with a half life of approximately 40 minutes for the L isomer form HXArg9.

[2] = test system: B16F10 (Mouse melanoma); format: cell-based
From the text: (§1) FIG. 5(a): MTT assays to determine the IC50 of the control and hexapeptide-containing peptides.
(§2) These include prostate (Miller, G. J. et al. Cancer Res. 63, 5879-5888 (2003)), renal (Cillo, C. et al. Int. J. Cancer. 51, 892-897 (1992)), bladder (Cantile, M., et al. Oncogene 22, 6462-6468 (2003)), lung (Abe, M. et al. Oncol. Rep. 15, 797-802 (2006)) and ovarian (Cheng, W., et al. Nat. Med. 11, 531-537 (2005)) cancer. In order to determine whether HXArg9 could also block the growth of cells derived from these cancers, we obtained the IC50 using an MTT assay for representative cell lines of each (Table 1).

[3] = test system: A549 (Human non-small cell lung carcinoma); format: cell-based
From the text: as §1, §2

[4] = test system: LNCaP (Human prostate cancer); format: cell-based
From the text: as §1, §2

[5] = test system: J82 (Human bladder cancer); format: cell-based
From the text: as §1, §2

[6] = test system: A498 (Human renal cancer); format: cell-based
From the text: as §1, §2

[7] = test system: SK-OV3 (Human ovarian cancer); format: cell-based
From the text: as §1, §2

[8] = test system: malignant cell lines (B16 mouse melanoma, LNCAP human prostate cancer, K562); experiment: Activity of peptides on different malignant cell lines, living and dead cells after 3 hours (FIGS. 6 to 8); format: cell-based; settings: for effect on living/dead cells, cell proliferation: 60 μM or 6 μM, 3 hour exposures, melanoma, prostate cancer and leukaemia cells
Experimental: (§3) The peptides as indicated were applied to the cells at a concentration of 60 μM (FIG. 6A) or 6 μM (FIG. 6B). In both experiments the HXArg9, CX1Arg9 and CX2Arg9 peptides used were the (2D) variant peptides in which the N- and C-terminal amino acids are in the D conformation and all remaining amino acids are in the L conformation. The number of living and dead cells were assessed after 3 hours. Black bars=% or number of cells dead. White bars=% or number of cells alive.
as §3, with “7A)” for “6A)”, “7B).” for “6B).”
as §3, with “μM. HXArg9(2D) is” for “μM (FIG. 6A) or 6 μM (FIG. 6B). In both experiments”, “variant form of HXArg9 in which the N-terminal and C-terminal amino acids are in the D conformation and the remaining amino acids are in the L conformation. HXArg9 consists of only L-conformation amino acids. The” for “HXArg9,”, “bars=%” for “bars=% or number of”
(§4) Cell lines were seeded at 4×10^4 cells/ml in liquid culture system made of RPMI-1640 medium (Life Technologies, UK) supplemented with Foetal Calf Serum (10% Sigma Aldrich) and penicillin/streptomycin (1%, Sigma) and at least in duplicate. When required the test peptide was added to the medium. Cell lines were cultured for up to 7 days at 37° C., 5% CO2 in humidified atmosphere. Cultured cells were then assessed for cell viability/enumeration using trypan blue exclusion (Sigma Aldrich).
The activity of the peptides described above was tested on a number of different malignant cell lines using a similar assay to that described previously.

[9] = test system: malignant cell lines (B16 mouse melanoma, LNCAP human prostate cancer, K562); settings: time scale in which HXP4 shows an effect; cited from earlier work
[10] = test system: B16 murine melanoma cells; experiment: B16 cell growth over a 4 day period (FIGS. 2B, 3); format: cell-based; settings: 200 μg/ml for 4 hours, counted day 4
Experimental: In FIG. 2B the peptides as indicated were applied to the cells at a concentration of 200 μg/ml for 4 hours. The number of cells present was assessed on the day of treatment (white bars) and on day 4 (diagonal stripes).
A=untreated; B=CXP4; C=HXP4; D=HXP4(3D)2; E=HXP4(3D)3; F=HXP4(3D)4.
as §4

[11] = test system: B16 cells; experiment: Apoptosis of B16 cells (microscopy, Hoechst, Annexin V FACS); format: cell-based, murine; settings: in combination with HXArg9(2D)
Experimental: FIG. 5(b): Light micrographs of B16 cells treated with 60 μM HXArg9(2D) (HXR9) or CX2Arg9(2D) (CXR9) for two hours. Scale bar=40 μm.
FIG. 5(c) Transmission electron micrographs of B16 cells treated with 60 μM HXR9 or CXR9 for two hours. Scale bar=[…].
FIG. 5(d) FACS sorting of B16 cells with Annexin. Cells were treated as indicated above each plot. The lower left hand quadrant represents normal, viable cells. The bottom and top right hand quadrants represent cells in early and late apoptosis, respectively, and the top left hand quadrant represents cells in necrosis.
Apoptotic morphology was determined using scanning electron microscopy and fluorescence microscopy. Changes in nuclear morphology were assessed by fixing B-16 cytospins with ice-cold methanol at room temperature for five minutes. The fixed cells were stained with Hoechst 33258 (2 μg/ml) (Sigma) and mounted using VECTASHIELD® mounting medium (Vector) and analyzed by fluorescence microscopy (Nikon Eclipse TE 2000-S).
An additional sign of apoptosis is the appearance of phosphatidylserine in the cell membrane (Koopman, G. et al. Blood 84, 1415-1420 (1994)). This can be detected by fluorescencently labeled Annexin V protein and cell sorting using FACS.
This is a specific inhibitor of the caspase proteases, which are key components of the apotopic pathway (Zhu, H., et al. FEBS Lett. 374, 303-308 (1995)).

[12] = test system: B16 murine melanoma cells; experiment: Living and dead B16 cells after 3 hours (FIGS. 2A, 9); format: cell-based; settings: B16 cells, FIGS. 2 and 3
Experimental: In FIG. 2A the peptides as indicated were applied to the cells at a concentration of 60 μM. The number of living and dead cells were assessed after 3 hours. Black bars=number of cells dead. White bars=number of cells alive.
as §3
The HXArg9 peptide used was the (2D) variant peptide in which the N- and C-terminal amino acids are in the D conformation and all remaining amino acids are in the L conformation. HXArg9 was applied to the cells at a variety of concentrations (μM), and the number of dead and living cells was assessed after 3 hours. Black bars=% cells dead. White bars=% cells alive.
as §4

CSCC[C@@H](N)C(=O)N[C@@H](CS)C(=O)N[C@@H](C)C(=O)N[C@@H](C)C(=O)NCC(=O)N[C@@H](CC(=O)O)C(=O)N[C@@H](CC(=O)O)C(=O)N[C@@H](C)C(=O)N[C@@H](CC(C)C)C(=O)N[C@@H](CCCNC(=N)N)C(=O)N[C@@H](CCCNC(=N)N)C(=O)N[C@@H](CCCNC(=N)N)C(=O)N[C@@H](CCCNC(=N)N)C(=O)N[C@@H](CCCNC(=N)N)C(=O)N[C@@H](CCCNC(=N)N)C(=O)N[C@@H](CCCNC(=N)N)C(=O)N[C@@H](CCCNC(=N)N)C(=O)N[C@H](CCCNC(=N)N)C(=O)O [CX2Arg9(2D), MCAAGDDALRRRRRRRRR, reference compound]
half-life at 1 mM [1]: ~720 min | IC50 [2]: 200 µM | IC50 [3]: 240 µM | IC50 [4]: 220 µM | IC50 [5]: 290 µM | IC50 [6]: 280 µM | IC50 [7]: 270 µM

WCPWLDRHGRRRRRRRRR [CX1Arg9, control peptide based on HXArg9 with amino acid substitutions]
effect on living/dead cells, cell proliferation [8]: some activity

WCPWLDRHGRQIKIWFQNRRMKWKK [CXP4]
effect in a similar assay, previously shown [9]: ineffective

CSCC[C@H](NC(=O)[C@H](Cc1c[nH]c2ccccc12)NC(=O)[C@@H]1CCCN1C(=O)[C@H](Cc1ccc(O)cc1)NC(=O)[C@H](N)Cc1c[nH]c2ccccc12)C(=O)N[C@@H](CCCCN)C(=O)N[C@@H](CCCCN)C(=O)N[C@@H](Cc1c[nH]cn1)C(=O)N[C@@H](Cc1c[nH]cn1)C(=O)N[C@@H](CCCNC(=N)N)C(=O)N[C@@H](CCCNC(=N)N)C(=O)N[C@@H](CCCNC(=N)N)C(=O)N[C@@H](CCCNC(=N)N)C(=O)N[C@@H](CCCNC(=N)N)C(=O)N[C@@H](CCCNC(=N)N)C(=O)N[C@@H](CCCNC(=N)N)C(=O)N[C@@H](CCCNC(=N)N)C(=O)N[C@H](CCCNC(=N)N)C(=O)O [HXArg9(2D), WYPWMKKHHRRRRRRRRR]
half-life at 1 mM [1]: ~720 min | IC50 [2]: 20 µM | IC50 [3]: 19 µM | IC50 [4]: 21 µM | IC50 [5]: 22 µM | IC50 [6]: 24 µM | IC50 [7]: 22 µM

MCAAGDDALRRRRRRRRR [CX2Arg9, more extensively changed version of the control peptide CX1Arg9, reference compound]
effect on living/dead cells, cell proliferation [8]: no effect on cell proliferation

WYPWMKKHHRQIKIWFQNRRMKWKK [HXP4]
cell growth over a 4 day period [10]: significantly reduced cell growth | effect on living/dead cells, cell proliferation [8]: no effect | time required to achieve the same response ([8]; compared with 3 hour exposures for HXArg9): 4 days

Z-VAD
cell death / apoptosis on co-treatment with HXArg9(2D) [11]: significant reduction in cell death; also recorded: significant reduction in the number of cells undergoing apoptosis

WYPWMKKHHRQIKIWFQNRRMKWKK [HXP4(3D)1]
activity of D-isomer variants of HXP4 [12]: slightly higher activity than the other 3D isomers
